Paper PMC9277925, “Discovery of a novel ALK/ROS1/FAK inhibitor, APG-2449, in preclinical non-small cell lung cancer and ovarian cancer models” (BMC Cancer, 2022)

Assays:
OV2423 = experiment: Ovarian cancer PDX mouse trial; assay type: in vivo, mice; details: treatment 28 days
OV2018 = experiment: Ovarian cancer PDX mouse trial; assay type: in vivo, mice; details: treatment 35 days
[1] = system: ovarian cancer OVCAR-3 CDX tumors; experiment: OVCAR-3 ovarian CDX efficacy; assay type: in vivo, BALB/c nude mice
Method: (§1) A range of compounds were administered orally (PO) once daily (QD). […] Osimertinib was dissolved in 20% polyethylene glycol 400 (PEG-400; Sigma-Aldrich) and erlotinib in 2% TWEEN 80 (Sigma-Aldrich). Trametinib was dissolved in a solvent composed of 1% carboxymethylcellulose, 0.5% TWEEN 80, and 0.5% methylcellulose. Defactinib was dissolved in 10% PEG 400 plus 5% ethanol (Sigma-Aldrich) in 1× phosphate-buffered saline (Genom Biotech; Hangzhou, China) and administered PO twice daily. Paclitaxel dissolved in saline was administered intraperitoneally once weekly.
(§2) The following were computed as previously reported (23): mean ± SEM tumor volumes, percent changes in body weight, tumor growth inhibition in treatment/control (T/C; %), modified Response Evaluation Criteria in Solid Tumors (mRECIST) objective response rate (ORR %), and disease control rate (DCR, %).

OV1396 = experiment: Ovarian cancer PDX mouse trial; assay type: in vivo, mice; details: treatment 43 days
OV0243 = experiment: Ovarian cancer PDX mouse trial; assay type: in vivo, mice; details: treatment 36 days
OV1385 = experiment: Ovarian cancer PDX mouse trial; assay type: in vivo, mice; details: treatment 35 days
OV1658 = experiment: Ovarian cancer PDX mouse trial; assay type: in vivo, mice; details: treatment 19 days
[2] = system: NCI-H1975 CDX model, osimertinib-relapsed; experiment: NCI-H1975 CDX osimertinib-relapsed rechallenge; assay type: in vivo, BALB/c nude mice; details: osimertinib 15 mg/kg for 21 days
Method: as §1, §2

PC-9 (parental) cells = experiment: WST-8 cell viability assay; assay type: cell-based; details: Homo sapiens, 72 h; treated for 3 days
Method: (§3) Cell viability was determined using the water-soluble tetrazolium salt (WST-8) assay (Cell counting Kit-8, Shanghai Life iLab). Cell viability was calculated as follows, where “RLU” signifies relative light units: Cellviability=meanRLUsample-meanRLUblank/RLUcellcontrol-RLUblank×100
(§4) Half-maximal inhibitory concentration (IC50) values were calculated using Prism (GraphPad, San Diego, CA).

[3] = system: osimertinib-resistant PC-9/OR CDX xenografts; experiment: PC-9/OR CDX efficacy; assay type: in vivo, BALB/c nude mice; details: treated for 3 weeks
Method: All other human lines were obtained from Cobio Biosciences (Nanjing, China). Murine pro-B cell lines BaF3 and BaF3_EML4-ALK^G1202R were purchased from KYinoo (Beijing). Other BaF3-engineered cell lines were constructed internally. An osimertinib-resistant parental cell (PC-9/OR) line was established by exposing PC-9 cells to escalating concentrations of osimertinib for 3 months.
as §1, §2

[4] = system: PC-9/OR (osimertinib-resistant) cells; experiment: WST-8 cell viability assay; assay type: cell-based; details: Homo sapiens, PC9-OR, 72 h; treated for 3 days
Excerpt: Purchased human cancer cell lines included: (1) ES-2, HO-8910 PM and SW620 (Shanghai Institute of Biochemistry and Cell Biology); (2) HCC827, NCI-H1650, NCI-H1975, HepG2, and IMR-32 (American Type Culture Collection; Manassas, VA); and (3) OVCAR-3 (China Center for Type Culture Collection; Wuhan). All other human lines were obtained from Cobio Biosciences (Nanjing, China). Murine pro-B cell lines BaF3 and BaF3_EML4-ALK^G1202R were purchased from KYinoo (Beijing). Other BaF3-engineered cell lines were constructed internally. An osimertinib-resistant parental cell (PC-9/OR) line was established by exposing PC-9 cells to escalating concentrations of osimertinib for 3 months.
as §3, §4

Row | Compound | Carboplatin (T/C %) (OV2423) | Carboplatin (T/C %) (OV2018) | antitumor activity of monotherapy (in words) [1] | Carboplatin (T/C %) (OV1396) | Carboplatin (T/C %) (OV0243) | Carboplatin (T/C %) (OV1385) | Carboplatin (T/C %) (OV1658) | response to initial treatment (in words) [2] | IC50 (PC-9 (parental) cells) | antitumor activity (in words) [3] | IC50 [4]
1 | N.N.O=C([O-])C1(C(=O)[O-])CCC1.[Pt+2] [Carboplatin, carboplatin] | 47.8% | 113.2% | weak or marginal antitumor activity | 65.3% | 0.0% | 51.5% | 68.4% |  |  |  | 
2 | C=CC(=O)Nc1cc(Nc2nccc(-c3cn(C)c4ccccc34)n2)c(OC)cc1N(C)CCN(C)C [Osimertinib, osimertinib] |  |  |  |  |  |  |  | all treated animals achieved complete response | 0.086 µM | negligible antitumor activity | 19.3 µM
